Test results from patent publication US20140187548A1, “6 SUBSTITUTED IMIDAZOPYRAZINES FOR USE AS MPS-1 AND TKK INHIBITORS IN THE TREATMENT OF HYPERPROLIFERATIVE DISORDERS” (BAYER INTELLECTUAL PROPERTY GMBH, priority 2010, published 2014).

These compounds were tested against T1, human kinase Mps-1 (Homo sapiens, UniProt P33981) (assay: Mps-1 kinase assay (TR-FRET)). Conditions: N-terminally GST-tagged human full length recombinant Mps-1; 10 μM ATP; 1 μM peptide substrate; 15 min pre-incubation; 60 min at 22° C.
T1 construct: N-terminally GST-tagged human full length recombinant Mps-1 kinase; GST (N); purchased Invitrogen, Karslruhe, Germany PV4071
T1 sequence (P33981 1-857): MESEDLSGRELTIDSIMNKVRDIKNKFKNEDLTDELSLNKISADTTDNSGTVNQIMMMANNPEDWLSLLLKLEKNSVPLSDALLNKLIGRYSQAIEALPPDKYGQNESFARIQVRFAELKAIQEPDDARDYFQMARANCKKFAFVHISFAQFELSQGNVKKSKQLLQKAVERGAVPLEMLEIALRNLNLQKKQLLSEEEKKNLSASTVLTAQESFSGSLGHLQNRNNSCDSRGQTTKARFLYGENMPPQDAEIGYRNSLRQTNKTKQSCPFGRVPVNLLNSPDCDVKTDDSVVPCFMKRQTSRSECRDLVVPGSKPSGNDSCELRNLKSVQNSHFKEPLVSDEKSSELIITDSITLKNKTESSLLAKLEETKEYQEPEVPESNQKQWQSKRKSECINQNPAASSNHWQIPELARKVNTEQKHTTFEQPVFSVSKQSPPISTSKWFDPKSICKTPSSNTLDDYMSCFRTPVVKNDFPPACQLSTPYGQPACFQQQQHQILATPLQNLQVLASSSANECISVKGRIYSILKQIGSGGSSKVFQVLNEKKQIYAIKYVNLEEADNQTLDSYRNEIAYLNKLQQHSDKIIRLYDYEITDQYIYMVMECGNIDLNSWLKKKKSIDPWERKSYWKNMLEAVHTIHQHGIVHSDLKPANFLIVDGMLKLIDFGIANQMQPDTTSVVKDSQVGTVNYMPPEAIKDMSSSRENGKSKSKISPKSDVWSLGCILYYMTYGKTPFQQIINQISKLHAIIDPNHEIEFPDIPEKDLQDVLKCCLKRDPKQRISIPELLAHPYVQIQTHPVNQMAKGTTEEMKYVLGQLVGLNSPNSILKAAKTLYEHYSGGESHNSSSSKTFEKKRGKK
Format: biochemical
Method in brief: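 TR-FRET read-out: after 1 h binding at 22° C, Eu-labelled anti-phospho-Ser/Thr antibody transfers to SA-XLent on the phosphorylated biotinylated peptide. The enzyme is GST-tagged full-length human Mps-1, typically about 1 nM final, in the linear range.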

SMILES	IC50 [nM]
CN1CCCC1CCNc1nc(-c2ccccc2)cn2c(-c3ccc(C(=O)NC4CC4)cc3)cnc12 (stereo not drawn) [Example 2-10, N-cyclopropyl-4-(8-{[2-(1-methylpyrrolidin-2-yl)ethyl]amino}-6-phenylimidazo[1,2-a]pyrazin-3-yl)benzamide]	16.6
CC(C)CNc1nc(-c2ccc(C(=O)NC(C)C)c(F)c2)cn2c(-c3ccc(C(=O)NC4CC4)cc3)cnc12 [Example 1-86, 4-{3-[4-(cyclopropyl-carbamoyl)phenyl]-8-[(2-methylpropyl)amino]imidazo[1,2-a]pyrazin-6-yl}-2-fluoro-N-(propan-2-yl)benzamide]	6.2
N#Cc1cccc(CNc2nc(-c3ccccc3)cn3c(-c4ccc(C(=O)NC5CC5)cc4)cnc23)c1 [Example 2-61, 4-{8-[(3-cyanobenzyl)amino]-6-phenylimidazo[1,2-a]pyrazin-3-yl}-N-cyclopropylbenzamide]	12.1
O=C(NC1CC1)c1ccc(-c2cnc3c(NCc4ccsc4)nc(-c4ccccc4)cn23)cc1 [Example 2-74, N-cyclopropyl-4-{6-phenyl-8-[(3-thienylmethyl)amino]imidazo[1,2-a]pyrazin-3-yl}benzamide]	3.7
CC(C)CNc1nc(-c2cccc(S(=O)(=O)N3CCOCC3)c2)cn2c(-c3ccc(C(=O)NC4CC4)cc3)cnc12 [Example 1-130, N-cyclopropyl-4-{8-(isobutylamino)-6-[3-(morpholin-4-ylsulfonyl)phenyl]imidazo[1,2-a]pyrazin-3-yl}benzamide]	6.7
CCN(CC)CCCNc1nc(-c2ccccc2)cn2c(-c3ccc(C(=O)NC4CC4)cc3)cnc12 [Example 2-29, N-cyclopropyl-4-(8-{[3-(diethylamino)propyl]amino}-6-phenylimidazo[1,2-a]pyrazin-3-yl)benzamide]	14.8
CC(C)CNc1nc(-c2ccc(OCC(C)C)cc2)cn2c(-c3ccc(C(=O)NC4CC4)cc3)cnc12 [Example 1-81, N-cyclopropyl-4-{6-[4-(2-methylpropoxy)phenyl]-8-[(2-methylpropyl)amino]imidazo[1,2-a]pyrazin-3-yl}benzamide]	347
CC(C)CNc1nc(-c2cccc(OC(C)C)c2)cn2c(-c3ccc(C(=O)NC4CC4)cc3)cnc12 [Example 1-29, N-cyclopropyl-4-{8-[(2-methylpropyl)amino]-6-[3-(propan-2-yloxy)phenyl]imidazo[1,2-a]pyrazin-3-yl}benzamide]	15.1
NS(=O)(=O)CCNc1nc(-c2ccccc2)cn2c(-c3ccc(C(=O)NC4CC4)cc3)cnc12 [Example 2-64, N-cyclopropyl-4-{6-phenyl-8-[(2-sulfamoylethyl)amino]imidazo[1,2-a]pyrazin-3-yl} benzamide]	1
COC(=O)c1cccc(-c2cn3c(-c4ccc(C(=O)NC5CC5)cc4)cnc3c(NCC(C)C)n2)c1 [Example 1-11, methyl 3-{3-[4-(cyclopropyl-carbamoyl)phenyl]-8-[(2-methylpropyl)amino]imidazo[1,2-a]pyrazin-6-yl}benzoate]	2.3
Cn1cc(CNc2nc(-c3ccccc3)cn3c(-c4ccc(C(=O)NC5CC5)cc4)cnc23)cn1 [Example 2-56, N-cyclopropyl-4-(8-{[(1-methyl-1H-pyrazol-4-yl)methyl]amino}-6-phenylimidazo[1,2-a]pyrazin-3-yl)benzamide]	1.3
O=C(NC1CC1)c1ccc(-c2cnc3c(NCC4CCCC4)nc(-c4ccccc4)cn23)cc1 [Example 2-72, 4-{8-[(Cyclopentylmethyl)amino]-6-phenylimidazo[1,2-a]pyrazin-3-yl}-N-cyclopropylbenzamide]	2.5
CC(C)CNc1nc(-c2cccc(S(N)(=O)=O)c2)cn2c(-c3ccc(C(=O)NC4CC4)cc3)cnc12 [Example 1-129, N-cyclopropyl-4-[8-(isobutylamino)-6-(3-sulfamoylphenyl)imidazo [1,2-a]pyrazin-3-yl] benzamide]	1.9
CC(C)CNc1nc(-c2ccccc2)c(F)n2c(-c3ccc(C(=O)NC4CC4)cc3)cnc12 [Example 5-1, N-cyclopropyl-4-{5-fluoro-8-[(2-methylpropyl)amino]-6-phenylimidazo[1,2-a]pyrazin-3-yl}benzamide]	67

Second part, the compound after the results:

IC50 [nM]	SMILES
75.4	CC(C)CNc1nc(-c2ccc(C(C)(C)C)cc2)cn2c(-c3ccc(C(=O)NC4CC4)cc3)cnc12 [Example 1-50, 4-{6-(4-tert-butylphenyl)-8-[(2-methylpropyl)amino]imidazo[1,2-a]pyrazin-3-yl}-N-cyclo-propylbenzamide]
3.6	Cc1cc(-c2cnc3c(NCCC(F)(F)F)nc(-c4ccc(F)cc4)cn23)ccc1C(=O)NC1CC1 [Example 10-1, N-cyclopropyl-4-{6-(4-fluorophenyl)-8-[(3,3,3-trifluoropropyl)amino]imidazo[1,2-a]pyrazin-3-yl}-2-methylbenzamide]
2.4	Cc1cccc(-c2cn3c(-c4ccc(C(=O)NC5CC5)cc4)cnc3c(NCC(C)C)n2)c1C [Example 1-9, N-cyclopropyl-4-{6-(2,3-dimethylphenyl)-8-[(2-methylpropyl)amino]imidazo[1,2-a]pyrazin-3-yl}benzamide]
1.2	CC(C)CNc1nc(-c2cccc(C(N)=O)c2)cn2c(-c3ccc(C(=O)NC4CC4)cc3)cnc12 [Example 1-25, 4-{6-(3-carbamoylphenyl)-8-[(2-methylpropyl)amino]imidazo[1,2-a]pyrazin-3-yl}-N-cyclo-propylbenzamide]
91.3	CC(C)(O)CNc1nc(-c2ccn[nH]2)cn2c(-c3ccc(C(=O)NC4CC4)c(Cl)c3)cnc12 [Example 1-101, 2-chloro-N-cyclopropyl-4-{8-[(2-hydroxy-2-methyl-propyl)amino]-6-(1H-pyrazol-5-yl)imidazo [1,2-a]pyrazin-3-yl} benzamide]
3.3	CC(C)CNc1nc(-c2ccc3ncccc3c2)cn2c(-c3ccc(C(=O)NC4CC4)cc3)cnc12 [Example 1-76, N-cyclopropyl-4-{8-[(2-methylpropyl)amino]-6-(quinolin-6-yl)imidazo [1,2-a]pyrazin-3-yl} benzamide]
35.9	COc1ccc(Cl)cc1-c1cn2c(-c3ccc(C(=O)NC4CC4)cc3)cnc2c(NCC(C)C)n1 [Example 1-71, 4-{6-(5-chloro-2-methoxy-phenyl)-8-[(2-methyl-propyl)amino]imidazo [1,2-a]pyrazin-3-yl}-N-cyclopropylbenzamide]
15.2	CC(C)CNc1nc(-c2cccc(Cl)c2)cn2c(-c3ccc(C(=O)NC4CC4)cc3)cnc12 [Example 1-37, 4-{6-(3-chlorophenyl)-8-[(2-methylpropyl)amino]imidazo[1,2-a]pyrazin-3-yl}-N-cyclopropyl-benzamide]
22.6	CC(C)CNc1nc(-c2ccc(Cl)c(Cl)c2)cn2c(-c3ccc(C(=O)NC4CC4)cc3)cnc12 [Example 1-45, N-cyclopropyl-4-{6-(3,4-dichlorophenyl)-8-[(2-methylpropyl)amino]imidazo[1,2-a]pyrazin-3-yl}benzamide]
99	CC(C)(O)CNc1nc(C2=CCOCC2)cn2c(-c3ccc(C(=O)NC4CC4)c(Cl)c3)cnc12 [Example 1-102, 2-chloro-N-cyclopropyl-4-{6-(3,6-dihydro-2H-pyran-4-yl)-8-[(2-hydroxy-2-methylpropyl)amino]imidazo[1,2-a]pyrazin-3-yl}benzamide]
